Results reported in patent US20030125235A1, “Treatment of diseases associated with cytokine production with inhibitors of the tec family of protein tyrosine kinases” (priority 2000, published 2003).

Assays:
[1] = system: RAW 264.7 murine macrophages; assay: LPS-induced TNF-α production in RAW 264.7 murine macrophages (ELISA); type: cell-based
Protocol: The murine macrophage cell line, Raw 264.7 were maintained in DMEM medium supplemented with 100 units/ml penicillin/streptomycin and 5% heat-inactivated fetal calf serum at 37° C. in a humidified atmosphere containing 5% CO2.
(§1) Supernatants from experiments using either human macrophages, rheumatoid synovial cells or PBMCs were analyzed for TNF-α ot IL-1 by enzyme-linked immunosorbent assay (ELISA). The ELISA for hTNF-α was performed as described by Engelberts et al. (1991) Lymphokine Cytokine Res. 10, 60-76.
This compound was investigated for its effects on TNF-α production. […] Supernatants were then harvested and assayed for TNF-α by ELISA as described in the Methods section.

[2] = biological target: Btk (Homo sapiens, UniProt Q06187); conditions: literature (Kawakami et al. 1999; Mahajan et al. 1999); cited from earlier work
[3] = system: Lyn, Syk or MAP kinases; conditions: Kawakami et al. 1999; cited from earlier work
[4] = system: TNF production; conditions: cited from earlier work; for LPS-induced TNF production: Geng et al. 1993
[5] = system: RA synovial membrane cultures; assay: Spontaneous TNF production in rheumatoid arthritis synovial membrane cultures (ELISA); type: cell-based, human; conditions: overnight culture; FIG. 10
Protocol: Synovium from rheumatoid patients undergoing joint replacement surgery was dissociated by cutting into small pieces, digested with collagenase and DNase (Buchan et al., 1988). The total cell mixture consisting predominantly of T cells and macrophages were cultured at a density of 1×10^6 cells/ml in RPMI containing 100 units/ml penicillin/streptomycin and 5% heat-inactivated fetal calf serum.
as §1
RA synovial cultures were treated with herbimycin at the given concentrations. Following overnight culture the supernatants were harvested and TNF expression measured by ELISA.

[6] = system: human monocytes; conditions: Stefanova et al. 1993; cited from earlier work

Btk, sequence (Q06187 whole entry, species assumed): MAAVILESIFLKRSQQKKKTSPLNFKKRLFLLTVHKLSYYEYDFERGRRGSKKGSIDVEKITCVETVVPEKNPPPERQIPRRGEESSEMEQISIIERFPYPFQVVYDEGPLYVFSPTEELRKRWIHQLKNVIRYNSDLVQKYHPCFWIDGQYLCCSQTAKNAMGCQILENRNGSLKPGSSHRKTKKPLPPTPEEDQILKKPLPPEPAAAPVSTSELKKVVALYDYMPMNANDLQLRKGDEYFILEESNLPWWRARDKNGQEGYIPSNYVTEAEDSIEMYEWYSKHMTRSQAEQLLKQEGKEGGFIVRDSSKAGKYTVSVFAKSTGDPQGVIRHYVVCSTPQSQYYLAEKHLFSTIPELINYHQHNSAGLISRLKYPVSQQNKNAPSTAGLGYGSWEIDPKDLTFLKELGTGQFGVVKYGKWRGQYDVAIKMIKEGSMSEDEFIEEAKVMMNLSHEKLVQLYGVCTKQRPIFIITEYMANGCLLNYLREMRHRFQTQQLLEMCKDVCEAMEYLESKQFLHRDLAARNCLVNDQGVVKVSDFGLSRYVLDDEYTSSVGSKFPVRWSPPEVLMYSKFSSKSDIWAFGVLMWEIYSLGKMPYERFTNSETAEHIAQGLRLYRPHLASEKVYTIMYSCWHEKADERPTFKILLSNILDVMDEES

C/C(O)=C(\C#N)C(=O)Nc1cc(Br)ccc1Br [LFM-A13]
inhibition of LPS-induced TNF-α expression ([1]; 200 μM, 1 h pretreatment, LPS 10 ng/ml for 4 h, FIG. 3): 44% | toxicity limiting the usable concentration ([1]; above 200 μM): toxicity | block of LPS-induced TNF-α expression (concentration dependence) ([1]; various concentrations, 1 h pretreatment, LPS 10 ng/ml for 4 h, FIG. 3): dose-dependent manner

CC1=C(O)C(=O)[C@@H]2O[C@@H]2C1=O [Terreic acid]
inhibition of Btk [2]: inhibit Btk | effect on activity of Lyn, Syk or MAP kinases [3]: without affecting the activity

O=c1c(-c2ccc(O)cc2)coc2cc(O)cc(O)c12 [genistein]
LPS-induced TNF production [4]: block

CO[C@H]1[C@@H](OC)C[C@H](C)[C@@H](OC)C2=CC(=O)C=C(NC(=O)/C(C)=C/C=C\[C@H](OC)[C@@H](OC(N)=O)/C(C)=C/[C@@H]1C)C2=O [herbimycin]
inhibition of spontaneous TNF production [5]: potent inhibitor | LPS-induced production of TNF-α and IL-1 [6]: completely blocks | LPS-induced TNF production [4]: block

N#CC(C#N)=Cc1ccc([N+](=O)[O-])c(O)c1 [tyrophostin AG126]
TNF production ([4]; Novogradsky et al. 1994): block
